In paper PMC3914206:

What was measured:
panel of 442 kinases [1] = molecular target: T1, panel of 442 kinases (Homo sapiens, UniProt P10721); format: binding; conditions: Compound Concentration 10 µM
T1 construct: purchased KINOMEscan
Description: (§1) We assessed the selectivity of members of this scaffold using the KINOMEscan methodology across a near comprehensive panel of 442 kinases [[18,27]].

panel of 442 kinases [2] = molecular target: T2, panel of 442 kinases (Homo sapiens, UniProt Q9UEE5); format: binding; conditions: Compound Concentration 10 µM
T2 construct: purchased KINOMEscan
T2 sequence (Q9UEE5 1-414): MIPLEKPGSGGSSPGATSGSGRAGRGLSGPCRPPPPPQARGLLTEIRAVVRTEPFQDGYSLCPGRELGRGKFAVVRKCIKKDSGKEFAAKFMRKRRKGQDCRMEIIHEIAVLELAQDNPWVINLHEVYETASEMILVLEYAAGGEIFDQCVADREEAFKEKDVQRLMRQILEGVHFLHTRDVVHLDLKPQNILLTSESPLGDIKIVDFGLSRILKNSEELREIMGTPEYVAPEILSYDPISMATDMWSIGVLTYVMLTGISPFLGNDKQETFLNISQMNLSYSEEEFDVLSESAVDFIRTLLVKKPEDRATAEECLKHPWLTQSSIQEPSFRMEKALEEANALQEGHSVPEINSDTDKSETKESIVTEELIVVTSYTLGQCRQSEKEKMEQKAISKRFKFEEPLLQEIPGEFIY
Description: as §1

T1 sequence (P10721 26-976): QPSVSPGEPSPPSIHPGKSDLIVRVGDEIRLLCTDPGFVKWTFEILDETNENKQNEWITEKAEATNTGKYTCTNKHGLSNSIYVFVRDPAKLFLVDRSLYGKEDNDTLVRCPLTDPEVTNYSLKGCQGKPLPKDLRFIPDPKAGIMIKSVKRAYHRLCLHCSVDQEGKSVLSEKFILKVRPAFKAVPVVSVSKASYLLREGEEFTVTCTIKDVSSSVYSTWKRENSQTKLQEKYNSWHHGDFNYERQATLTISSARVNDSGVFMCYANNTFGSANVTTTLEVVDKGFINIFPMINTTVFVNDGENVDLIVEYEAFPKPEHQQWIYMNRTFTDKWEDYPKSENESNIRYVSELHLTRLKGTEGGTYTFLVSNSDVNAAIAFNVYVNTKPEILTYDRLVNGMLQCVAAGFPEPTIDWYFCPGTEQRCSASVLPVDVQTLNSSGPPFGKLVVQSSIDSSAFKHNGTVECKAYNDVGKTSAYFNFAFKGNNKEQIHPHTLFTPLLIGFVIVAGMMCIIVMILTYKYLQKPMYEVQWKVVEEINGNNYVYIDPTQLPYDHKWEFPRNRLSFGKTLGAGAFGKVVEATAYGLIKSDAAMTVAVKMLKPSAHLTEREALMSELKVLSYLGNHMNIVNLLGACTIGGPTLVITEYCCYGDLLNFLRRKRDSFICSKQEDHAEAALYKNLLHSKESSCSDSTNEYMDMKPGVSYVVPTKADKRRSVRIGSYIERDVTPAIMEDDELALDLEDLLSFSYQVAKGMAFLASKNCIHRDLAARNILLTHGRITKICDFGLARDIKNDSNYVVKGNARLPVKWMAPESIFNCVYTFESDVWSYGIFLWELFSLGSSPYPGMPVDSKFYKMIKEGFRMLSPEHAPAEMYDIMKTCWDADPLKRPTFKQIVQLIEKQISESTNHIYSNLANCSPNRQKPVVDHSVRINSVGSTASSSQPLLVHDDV

Compound	KINOMEscan: KIT (panel of 442 kinases [1])	KINOMEscan: DRAK1 (panel of 442 kinases [2])
COc1cc(C(=O)N2CCC(N3CCN(C)CC3)CC2)ccc1Nc1ncc2c(n1)N(C1CCCC1)c1ccccc1C(=O)N2C [Compound 25, 11-cyclopentyl-2-((2-methoxy-4-(4-(4-methylpiperazin-1-yl)piperidine-1-carbonyl)phenyl)amino)-5-methyl-5H-benzo[e]pyrimido[5,4-b][1,4]diazepin-6(11H)-one]	91	100
CCOc1cc(C(=O)N2CCC(N3CCN(C)CC3)CC2)ccc1Nc1ncc2c(n1)N(C1CCCC1)c1ccccc1C(=O)N2C [Compound 26]	100	100
COc1cc(C(=O)N2CCC(N3CCN(C)CC3)CC2)ccc1Nc1ncc2c(n1)N(C)c1ccccc1C(=O)N2C [15 (LRRK2-IN-1)]	100	100
